Source: patent US10961401B2, “UV cured benzophenone terminated quaternary ammonium antimicrobials for surfaces” (NANO SAFE COATINGS INCORPORATED, priority 2012, dated 2021)
Where a name gives a salt, the structure may show the parent alone.

Columns and labels:
Pseudomonas spp. CTO7 = experiment: Flow-cell antimicrobial test: bacterial cell count in effluent of coated silicone tubing; format: cell-based; conditions: 100 μL effluent plated on 10% TSA
Procedure: Preparation of Self Assembled Monolayers on Silicone Tubing
Silicone tubing was rinsed with IPA and H2O using a peristaltic pump then dried by running air through the tubes. A 0.05% (w/v) solution of 8a in H2O and a 0.5% (w/v) solution of 4c in H2O/IPA were prepared. Tubes were coated using the peristaltic pump and filled tubes were irradiated using a UV fumehood for 25 minutes. Coated tubes were then rinsed with H2O to remove any unbound materials.
1.5% (w/v) solutions of 8a and 4c in dichloromethane (DCM) were prepared. These solutions were pumped through clean silicone tubing using a syringe and irradiated using a UV quartz lamp for 30 minutes.
Antimicrobial Test Method
The antimicrobial efficacy was determined using a flow-cell method as described in Markison C and Swan J, “The Effect of Humidity on the Survival of MRSA on Hard Surfaces”, Indoor and Built Environment, 2006, 15(1), 85-91. A 1% tryptic soy broth and an inoculum of 10×10^4 cfu/mL of Pseudomonas spp. CTO7 were pumped through silicone tubing coated with 8a, 4c and a control tube for 30 hours. The tubes were then left stagnant for a period of 2 hours after which only the 1% TSB was allowed to flow through the tubes for 48 hours. During these 48 hours effluent samples of 100 μL were collected periodically and plated on 10% trypticase soy agar (TSA) in a dilution series up to 10×10^4. Sampling periods were time zero, 3 hours, 6 hours, 24 hours, 27 hours, 30 hours, and 48 hours. The number of colonies grown on each plate was counted in order to determine antimicrobial activity.

[1] = time 0 hr, sample dilution 10^0
[2] = time 0 hr, sample dilution 10^−1
[3] = time 0 hr, sample dilution 10^−2
[4] = time 0 hr, sample dilution 10^−3
[5] = time 0 hr, sample dilution 10^−4
[6] = time 3 hr, sample dilution 10^0
[7] = time 3 hr, sample dilution 10^−1
[8] = time 3 hr, sample dilution 10^−2
[9] = time 3 hr, sample dilution 10^−3
[10] = time 3 hr, sample dilution 10^−4
[11] = time 6 hr, sample dilution 10^0
[12] = time 6 hr, sample dilution 10^−1
[13] = time 6 hr, sample dilution 10^−2
[14] = time 6 hr, sample dilution 10^−3
[15] = time 6 hr, sample dilution 10^−4
[16] = time 24 hr, sample dilution 10^0
[17] = time 24 hr, sample dilution 10^−1
[18] = time 24 hr, sample dilution 10^−2
[19] = time 24 hr, sample dilution 10^−3
[20] = time 24 hr, sample dilution 10^−4
[21] = time 27 hr, sample dilution 10^0
[22] = time 27 hr, sample dilution 10^−1
[23] = time 27 hr, sample dilution 10^−2
[24] = time 27 hr, sample dilution 10^−3
[25] = time 27 hr, sample dilution 10^−4
[26] = time 30 hr, sample dilution 10^0
[27] = time 30 hr, sample dilution 10^−1
[28] = time 30 hr, sample dilution 10^−2
[29] = time 30 hr, sample dilution 10^−3
[30] = time 30 hr, sample dilution 10^−4
[31] = time 48 hr, sample dilution 10^0
[32] = time 48 hr, sample dilution 10^−1
[33] = time 48 hr, sample dilution 10^−2
[34] = time 48 hr, sample dilution 10^−3
[35] = time 48 hr, sample dilution 10^−4

Structure (SMILES)	Pseudomonas bacterial cell count on coated silicone tubing (Pseudomonas spp. CTO7; [1]) [cfu/mL]	Pseudomonas bacterial cell count on coated silicone tubing (Pseudomonas spp. CTO7; [2]) [cfu/mL]	Pseudomonas bacterial cell count on coated silicone tubing (Pseudomonas spp. CTO7; [3]) [cfu/mL]	Pseudomonas bacterial cell count on coated silicone tubing (Pseudomonas spp. CTO7; [4]) [cfu/mL]	Pseudomonas bacterial cell count on coated silicone tubing (Pseudomonas spp. CTO7; [5]) [cfu/mL]	Pseudomonas bacterial cell count on coated silicone tubing (Pseudomonas spp. CTO7; [6]) [cfu/mL]	Pseudomonas bacterial cell count on coated silicone tubing (Pseudomonas spp. CTO7; [7]) [cfu/mL]	Pseudomonas bacterial cell count on coated silicone tubing (Pseudomonas spp. CTO7; [8]) [cfu/mL]	Pseudomonas bacterial cell count on coated silicone tubing (Pseudomonas spp. CTO7; [9]) [cfu/mL]	Pseudomonas bacterial cell count on coated silicone tubing (Pseudomonas spp. CTO7; [10]) [cfu/mL]	Pseudomonas bacterial cell count on coated silicone tubing (Pseudomonas spp. CTO7; [11]) [cfu/mL]	Pseudomonas bacterial cell count on coated silicone tubing (Pseudomonas spp. CTO7; [12]) [cfu/mL]	Pseudomonas bacterial cell count on coated silicone tubing (Pseudomonas spp. CTO7; [13]) [cfu/mL]	Pseudomonas bacterial cell count on coated silicone tubing (Pseudomonas spp. CTO7; [14]) [cfu/mL]	Pseudomonas bacterial cell count on coated silicone tubing (Pseudomonas spp. CTO7; [15]) [cfu/mL]	Pseudomonas bacterial cell count on coated silicone tubing (Pseudomonas spp. CTO7; [16]) [cfu/mL]	Pseudomonas bacterial cell count on coated silicone tubing (Pseudomonas spp. CTO7; [17]) [cfu/mL]	Pseudomonas bacterial cell count on coated silicone tubing (Pseudomonas spp. CTO7; [18]) [cfu/mL]	Pseudomonas bacterial cell count on coated silicone tubing (Pseudomonas spp. CTO7; [19]) [cfu/mL]	Pseudomonas bacterial cell count on coated silicone tubing (Pseudomonas spp. CTO7; [20]) [cfu/mL]	also measured
CCCCCCCCCCCCCCCCCC[N+](C)(C)CCCOc1ccc(C(=O)c2ccccc2)cc1 [Compound 4c]	300	300	48	8	0	20	0	0	0	0	160	15	0	0	0	300	200	21	4	0	Pseudomonas bacterial cell count on coated silicone tubing (Pseudomonas spp. CTO7; [21]): 300 cfu/mL; Pseudomonas bacterial cell count on coated silicone tubing (Pseudomonas spp. CTO7; [22]): 110 cfu/mL; Pseudomonas bacterial cell count on coated silicone tubing (Pseudomonas spp. CTO7; [23]): 11 cfu/mL; Pseudomonas bacterial cell count on coated silicone tubing (Pseudomonas spp. CTO7; [24]): 0 cfu/mL; Pseudomonas bacterial cell count on coated silicone tubing (Pseudomonas spp. CTO7; [25]): 0 cfu/mL; Pseudomonas bacterial cell count on coated silicone tubing (Pseudomonas spp. CTO7; [26]): 300 cfu/mL; Pseudomonas bacterial cell count on coated silicone tubing (Pseudomonas spp. CTO7; [27]): 70 cfu/mL; Pseudomonas bacterial cell count on coated silicone tubing (Pseudomonas spp. CTO7; [28]): 5 cfu/mL; Pseudomonas bacterial cell count on coated silicone tubing (Pseudomonas spp. CTO7; [29]): 0 cfu/mL; Pseudomonas bacterial cell count on coated silicone tubing (Pseudomonas spp. CTO7; [30]): 0 cfu/mL; Pseudomonas bacterial cell count on coated silicone tubing (Pseudomonas spp. CTO7; [31]): 289 cfu/mL; Pseudomonas bacterial cell count on coated silicone tubing (Pseudomonas spp. CTO7; [32]): 31 cfu/mL; Pseudomonas bacterial cell count on coated silicone tubing (Pseudomonas spp. CTO7; [33]): 0 cfu/mL; Pseudomonas bacterial cell count on coated silicone tubing (Pseudomonas spp. CTO7; [34]): 0 cfu/mL; Pseudomonas bacterial cell count on coated silicone tubing (Pseudomonas spp. CTO7; [35]): 0 cfu/mL
CN(C)c1cccc2c(S(=O)(=O)NCCC[N+](C)(C)CCCCOc3ccc(C(=O)c4ccccc4)cc3)cccc12 [Compound 8a, 4-(4-benzoylphenoxy)-N-(3-(5-(dimethylamino)naphthalene-1-sulfonamido)propyl)-N,N-dimethylbutan-1-ammonium bromide]	0	0	0	0	0	15	0	0	0	0	6	0	0	0	0	0	0	0	0	0	Pseudomonas bacterial cell count on coated silicone tubing (Pseudomonas spp. CTO7; [21]): 30 cfu/mL; Pseudomonas bacterial cell count on coated silicone tubing (Pseudomonas spp. CTO7; [22]): 0 cfu/mL; Pseudomonas bacterial cell count on coated silicone tubing (Pseudomonas spp. CTO7; [23]): 0 cfu/mL; Pseudomonas bacterial cell count on coated silicone tubing (Pseudomonas spp. CTO7; [24]): 0 cfu/mL; Pseudomonas bacterial cell count on coated silicone tubing (Pseudomonas spp. CTO7; [25]): 0 cfu/mL; Pseudomonas bacterial cell count on coated silicone tubing (Pseudomonas spp. CTO7; [26]): 18 cfu/mL; Pseudomonas bacterial cell count on coated silicone tubing (Pseudomonas spp. CTO7; [27]): 4 cfu/mL; Pseudomonas bacterial cell count on coated silicone tubing (Pseudomonas spp. CTO7; [28]): 0 cfu/mL; Pseudomonas bacterial cell count on coated silicone tubing (Pseudomonas spp. CTO7; [29]): 0 cfu/mL; Pseudomonas bacterial cell count on coated silicone tubing (Pseudomonas spp. CTO7; [30]): 0 cfu/mL; Pseudomonas bacterial cell count on coated silicone tubing (Pseudomonas spp. CTO7; [31]): 27 cfu/mL; Pseudomonas bacterial cell count on coated silicone tubing (Pseudomonas spp. CTO7; [32]): 1 cfu/mL; Pseudomonas bacterial cell count on coated silicone tubing (Pseudomonas spp. CTO7; [33]): 0 cfu/mL; Pseudomonas bacterial cell count on coated silicone tubing (Pseudomonas spp. CTO7; [34]): 0 cfu/mL; Pseudomonas bacterial cell count on coated silicone tubing (Pseudomonas spp. CTO7; [35]): 0 cfu/mL
CN(C)c1cccc2c(S(=O)(=O)NCCC[N+](C)(C)CCCCOc3ccc(C(=O)c4ccccc4)cc3)cccc12 (as salt: bromide) [Compound 8a, 4-(4-benzoylphenoxy)-N-(3-(5-(dimethylamino)naphthalene-1-sulfonamido)propyl)-N,N-dimethylbutan-1-ammonium bromide]																					melting point: 96 to 104 °C
